# Data published in patent publication US20070049564A1 (Wyeth, priority 2005, published 2007).
# Read-outs that look alike come from different tables or passages of the source.
# How the values were obtained:
# E. coli GC 4560 = experiment: MIC, broth microdilution; conditions: Escherichia coli
# E. coli GC 6465 = experiment: MIC, broth microdilution; conditions: Escherichia coli
# E. coli GC 2271 = experiment: MIC, broth microdilution; conditions: Escherichia coli
# E. coli = experiment: Range of MIC for E. coli strains; conditions: Escherichia coli
# P. aeruginosa GC 2214 = experiment: MIC, broth microdilution; conditions: Pseudomonas aeruginosa
# E. faecalis GC 2242 = experiment: MIC, broth microdilution; conditions: Enterococcus faecalis
# S. agalactiae GC 4564 = experiment: MIC, broth microdilution; conditions: Streptococcus agalactiae
# E. coli GC 1073 = experiment: MIC, broth microdilution; conditions: Escherichia coli
# E. faecalis GC 2265 = experiment: MIC, broth microdilution; conditions: Enterococcus faecalis
# E. coli GC 2233 = experiment: MIC, broth microdilution; conditions: Escherichia coli
# E. coli GC 4559 = experiment: MIC, broth microdilution; conditions: Escherichia coli
# E. coli GC 2203 = experiment: MIC, broth microdilution; conditions: Escherichia coli
# S. aureus GC 6469 = experiment: MIC, broth microdilution; conditions: Staphylococcus aureus
# S. aureus GC 6467 = experiment: MIC, broth microdilution; conditions: Staphylococcus aureus
# E. coli GC 2270 = experiment: MIC, broth microdilution; conditions: Escherichia coli
# E. coli GC 2235 = experiment: MIC, broth microdilution; conditions: Escherichia coli
# E. coli GC 2236 = experiment: MIC, broth microdilution; conditions: Escherichia coli
# S. aureus GC 4536 = experiment: MIC, broth microdilution; conditions: Staphylococcus aureus
# Staph. = experiment: Range of MIC for Staph. strains, including MRSA; conditions: Staphylococcus aureus
# Method: Antimicrobial susceptibility testing. The in vitro activities of the antibiotics are determined by the broth microdilution method as recommended by the National Committee for Clinical Laboratory Standards (NCCLS) (1). Mueller-Hinton II broth (MHBII)(BBL Cockeysville, Md.) is the medium employed in the testing procedures. Microtiter plates containing serial dilutions of each antimicrobial agent are inoculated with each organism to yield the appropriate density (10^5 CFU/ml) in a 100 μl final volume. The plates are incubated for 18-22 hours at 35° C. in ambient air.
# Representative compounds were first incubated in mouse serum for an hour prior to the in vitro testing against a panel of selected gram-positive and gram-negative bacteria strains. All compounds were also pre-incubated in water for an hour prior to testing as control. Representative compounds of Formula I were incubated in human serum prior to MIC determination.
# E. faecalis GC 4555 = experiment: MIC, broth microdilution; conditions: Enterococcus faecalis
smiles,measurement,setting,value
"CCCCC(=O)OCOC(=O)N(CC(=O)Nc1cc(N(C)C)c2c(c1O)C(=O)C1=C(O)[C@]3(O)C(=O)C(C(N)=O)=C(O)[C@@H](N(C)C)[C@@H]3C[C@@H]1C2)C(C)(C)C [Example 61, ({[(2-{[(5aR,6aS,7S,10aS)-9-(aminocarbonyl)-4,7-bis(dimethylamino)-1,8,10a,11-tetrahydroxy-10,12-dioxo-5,5a,6,6a,7,10,10a,12-octahydrotetracen-2-yl]amino}-2-oxoethyl)(tert-butyl)amino]carbonyl}oxy)methyl pentanoate]",MIC,"E. coli GC 4560; GC4560, pre-incubation in human serum",1 µg/mL
same,MIC,"E. coli GC 4560; GC4560, pre-incubation in mouse serum",0.25 µg/mL
same,MIC,"E. coli GC 4560; GC4560, pre-incubation in water",1 µg/mL
same,MIC,"E. coli GC 6465; GC6465, pre-incubation in human serum",32 µg/mL
same,MIC,"E. coli GC 6465; GC6465, pre-incubation in mouse serum",1 µg/mL
same,MIC,"E. coli GC 6465; GC6465, pre-incubation in water",> 64 µg/mL
same,MIC,"E. coli GC 2271; GC2271, pre-incubation in human serum",4 µg/mL
same,MIC,"E. coli GC 2271; GC2271, pre-incubation in mouse serum",0.5 µg/mL
same,MIC,"E. coli GC 2271; GC2271, pre-incubation in water",16 µg/mL
same,MIC,"E. coli; 20 h, read-out: Range of MIC, E. coli (Mouse Serum)",0.5 to 1 µg/mL
same,MIC,"E. coli; read-out: Minimum inhibitory concentration (MIC), E. coli (Human Serum)",4 to 32 µg/mL
same,MIC,"P. aeruginosa GC 2214; GC2214, pre-incubation in human serum",> 64 µg/mL
same,MIC,"P. aeruginosa GC 2214; GC2214, pre-incubation in mouse serum",8 µg/mL
same,MIC,"P. aeruginosa GC 2214; GC2214, pre-incubation in water",> 64 µg/mL
same,MIC,"E. faecalis GC 2242; GC2242, pre-incubation in human serum",2 µg/mL
same,MIC,"E. faecalis GC 2242; GC2242, pre-incubation in mouse serum",0.5 µg/mL
same,MIC,"E. faecalis GC 2242; GC2242, pre-incubation in water",2 µg/mL
same,MIC,"S. agalactiae GC 4564; GC4564, pre-incubation in human serum",0.5 µg/mL
same,MIC,"S. agalactiae GC 4564; GC4564, pre-incubation in mouse serum",0.25 µg/mL
same,MIC,"S. agalactiae GC 4564; GC4564, pre-incubation in water",0.25 µg/mL
same,MIC,"E. coli GC 1073; GC1073, pre-incubation in human serum",8 µg/mL
same,MIC,"E. coli GC 1073; GC1073, pre-incubation in mouse serum",0.5 µg/mL
same,MIC,"E. coli GC 1073; GC1073, pre-incubation in water",32 µg/mL
same,MIC,"E. faecalis GC 2265; GC2265, pre-incubation in human serum",2 µg/mL
same,MIC,"E. faecalis GC 2265; GC2265, pre-incubation in mouse serum",0.5 µg/mL
same,MIC,"E. faecalis GC 2265; GC2265, pre-incubation in water",2 µg/mL
same,MIC,"E. coli GC 2233; GC2233, pre-incubation in human serum",8 µg/mL
same,MIC,"E. coli GC 2233; GC2233, pre-incubation in mouse serum",1 µg/mL
same,MIC,"E. coli GC 2233; GC2233, pre-incubation in water",16 µg/mL
same,MIC,"E. coli GC 4559; GC4559, pre-incubation in human serum",8 µg/mL
same,MIC,"E. coli GC 4559; GC4559, pre-incubation in mouse serum",1 µg/mL
same,MIC,"E. coli GC 4559; GC4559, pre-incubation in water",64 µg/mL
same,MIC,"E. coli GC 2203; GC2203, pre-incubation in human serum",8 µg/mL
same,MIC,"E. coli GC 2203; GC2203, pre-incubation in mouse serum",0.5 µg/mL
same,MIC,"E. coli GC 2203; GC2203, pre-incubation in water",32 µg/mL
same,MIC,"S. aureus GC 6469; GC6469, pre-incubation in human serum",0.5 µg/mL
same,MIC,"S. aureus GC 6469; GC6469, pre-incubation in mouse serum",0.5 µg/mL
same,MIC,"S. aureus GC 6469; GC6469, pre-incubation in water",2 µg/mL
same,MIC,"S. aureus GC 6467; GC6467, pre-incubation in human serum",0.5 µg/mL
same,MIC,"S. aureus GC 6467; GC6467, pre-incubation in mouse serum",0.5 µg/mL
same,MIC,"S. aureus GC 6467; GC6467, pre-incubation in water",1 µg/mL
same,MIC,"E. coli GC 2270; GC2270, pre-incubation in human serum",4 µg/mL
same,MIC,"E. coli GC 2270; GC2270, pre-incubation in mouse serum",0.5 µg/mL
same,MIC,"E. coli GC 2270; GC2270, pre-incubation in water",16 µg/mL
same,MIC,"E. coli GC 2235; GC2235, pre-incubation in human serum",4 µg/mL
same,MIC,"E. coli GC 2235; GC2235, pre-incubation in mouse serum",0.5 µg/mL
same,MIC,"E. coli GC 2235; GC2235, pre-incubation in water",16 µg/mL
same,MIC,"E. coli GC 2236; GC2236, pre-incubation in human serum",4 µg/mL
same,MIC,"E. coli GC 2236; GC2236, pre-incubation in mouse serum",0.5 µg/mL
same,MIC,"E. coli GC 2236; GC2236, pre-incubation in water",16 µg/mL
same,MIC,"S. aureus GC 4536; GC4536, pre-incubation in human serum",0.5 µg/mL
same,MIC,"S. aureus GC 4536; GC4536, pre-incubation in mouse serum",0.5 µg/mL
same,MIC,"S. aureus GC 4536; GC4536, pre-incubation in water",0.5 µg/mL
same,MIC,"Staph.; MRSA, read-out: Range of MIC, Staph (Mouse Serum)",0.25 to 0.5 µg/mL
same,MIC,"Staph.; MRSA, read-out: Range of MIC, Staph (Water)",0.5 to 2 µg/mL
same,MIC,"Staph.; read-out: Minimum inhibitory concentration (MIC), Staph (Human Serum)",0.5 to 1 µg/mL
same,MIC,"Staph.; read-out: Minimum inhibitory concentration (MIC), Staph (Water)",0.5 to 2 µg/mL
same,MIC,"E. faecalis GC 4555; GC4555, pre-incubation in human serum",2 µg/mL
same,MIC,"E. faecalis GC 4555; GC4555, pre-incubation in mouse serum",1 µg/mL
same,MIC,"E. faecalis GC 4555; GC4555, pre-incubation in water",2 µg/mL
